Laboratory results: PMC5656322, “BAK1 is involved in AtRALF1-induced inhibition of root cell expansion” (PLoS Genetics, 2017)
Where no end group is shown, it is not given here.

Experiments:
[1] = system: extracellular domain of BAK1 (BAK1-ECD); experiment: Yeast two-hybrid with BAK1-ECD; assay type: binding, Arabidopsis thaliana; settings: yeast AH109, medium lacking Leu, Trp, His
Description: (§1) Fig 6 AtRALF1 interacts physically with BAK1 protein. (A) The active AtRALF1 peptide interacts with the extracellular domain (ECD) of BAK1 (BAK1-ECD) in yeast. The AtRALF1 protein fused to the GAL4 DNA-binding domain (AtRALF1-pGBKT7) was used as bait to test its interaction with the extracellular domain of the proteins fused to the GAL4 activation domain (pGADT7): BAK1 (BAK1-ECD), BAK7 (BAK7-ECD), BRI1 (BRI1-ECD) and FLS2 (FLS2-ECD). (B) Blueprint showing the truncated proteins from the extracellular domain of BAK1 tested in the two-hybrid assay. The extracellular domain of BAK1 comprises leucine zippers (LZ), 5 leucine rich-regions (LRRs) and a proline-rich region (pro-rich). (C) AtRALF1-pGBKT7 was used as bait to test its interaction with truncated proteins fused to the GAL4 activation domain (pGADT7). […] HA-BAK1-ECD was detected with an anti-HA antibody. AtRALF1 was detected with an anti-RALF antibody. […] BAK1-GFP was detected with an anti-GFP antibody. […]
(§2) The coding regions of the mature peptides AtRALF1 and AtRALF34 were amplified from Arabidopsis genomic DNA and fused to the GAL4 DNA-binding domain and the MYC epitope tag using the NdeI/BamHI sites in the pGBKT7 (Clontech) vector. […] The proteins fused to the HA and MYC epitope tags were detected by protein blotting. […]

BAK7 (BAK7-ECD) = experiment: Yeast two-hybrid with BAK7-ECD; assay type: binding, Arabidopsis thaliana; settings: yeast AH109, medium lacking Leu, Trp, His
Description: as §1, §2

FLS2 (FLS2-ECD) = experiment: Yeast two-hybrid with FLS2-ECD; assay type: binding, Arabidopsis thaliana; settings: yeast AH109, medium lacking Leu, Trp, His
Description: as §1, §2

[2] = system: cytosolic Ca^2+ in Arabidopsis seedlings; settings: from extra- and intracellular stores; ref [1],[11]; cited from earlier work
BAK1 = BAK1 phosphorylation assay, anti-phosphoserine; assay type: in vivo, Arabidopsis thaliana; settings: pBAK1:BAK1-6xHA roots; 1, 2 and 10 μM, 20 min
Protocol: Transgenic plants pBAK1:BAK1-6xHA were grown in vertical plates for 10–15 days. The plants were treated with 0.1 μM BL, 2 μM RALF1(9–49), 1 μM, 2 μM or 10 μM AtRALF1 for 20 min. The roots were isolated, and the microsomal fractions were obtained as described above. The microsomal fractions were incubated with anti-HA beads (EZview Red Anti-HA Affinity Gel, Sigma) for 2 h at 4 °C to immunoprecipitate the BAK1 protein. The unbound materials were removed by washing 3 times. Proteins were separated by SDS/PAGE and further analyzed by protein blotting using anti-HA (Thermo Scientific), or anti-phosphothreonine (Novus Biologicals), or anti-phosphoserine (Novus Biologicals) antibodies.

[3] = system: BAK1 gene promoter / BAK1-GFP; experiment: Quantification of GFP in roots of pBAK1:BAK1-GFP plants; assay type: in vivo, Arabidopsis thaliana; settings: 1 μM, 4 h
Protocol: Transgenic Arabidopsis plants were grown for 4 days in liquid medium and treated with 1 μM AtRALF1 for 4 h. After 4 h of agitation at room temperature, the intensity of GFP in the roots was analyzed by confocal microscopy (Olympus FV1000). Control plants were kept in a peptide-free medium. The GFP excitation wavelength was 488 nm, and the emission wavelength was 540 nm. Images were generated by a scanner depth of 7 μm. Ten slices per root were generated and compacted in one image. Image processing was performed using the Olympus FluoView software. An average of 20 seedlings were observed under the microscope in at least 3 different experiments using independent biological replicates.

[4] = system: Arabidopsis seedlings, rhizosphere; experiment: Rhizosphere alkalinization, gel with pH indicator bromocresol purple; assay type: in vivo, Arabidopsis thaliana; settings: wild-type and bak1 seedlings, 10 μM, 30 min, pH 5.7
Protocol: To analyze the rhizosphere alkalinization, seedlings were grown in plates for 7 days. To avoid damage to the roots, the medium was solidified with 12 g l^-1 Phytagel. Seedlings were transferred to plates containing the pH indicator bromocresol purple (pH 5.7) as described previously and treated with 10 μM AtRALF1 or water. Images were captured 30 min after transfer onto the gel indicator. The experiments were repeated at least three times using independent biological replicates. The data shown are from one representative experiment.

Substance: AtRALF1: root-specific RALF isoform in Arabidopsis; recombinant peptide hormone produced in E. coli (ATTKYISYQSLKRNSVPCSRRGASYYNCQNGAQANPYSRGCSKIARCRS; ends and bridges not checked; cysteine pairing not given here)
- interaction with BAK1-ECD (Y2H complementation) [1]: able to complement only the BAK1-ECD construct
- interaction with BAK7-ECD (Y2H complementation) (BAK7 (BAK7-ECD)): able to complement only the BAK1-ECD construct
- interaction with FLS2-ECD (Y2H complementation) (FLS2 (FLS2-ECD)): able to complement only the BAK1-ECD construct
- cytoplasmic Ca^2+ [2]: rapid increase in cytoplasmic Ca^2+
- BAK1 serine phosphorylation (BAK1): no changes were detected
- BAK1-GFP fluorescent signal in roots [3]: quantitative increase in fluorescent signal in the roots
- rhizosphere coloration (alkalinization) [4]: developed a purple coloration around the rhizosphere
